Experimental data published in patent publication US6818407B2, “Anti-endotoxic antimicrobial cationic peptides and methods of use therfor” (priority 1998, dated 2004).
Marks after values point to notes of the source that are not given here.

What was measured:
[1] = Lethal endotoxemia in galactosamine-sensitized mice; assay type: in vivo, CD-1 mice; conditions: peptide 200 μg intraperitoneal within 10 min of 10 μg LPS; 24 hours post injection; 5 mice per group; no peptide 100
Method: To confirm this in vivo, endotoxic shock was induced by intraperitoneal injection of 10 μg of E.coli 0111:B4 LPS in phosphate-buffered saline (PBS; pH 7.2) into galactosamine-sensitized 8- to 10- week old female CD-1 mice (5 per group). In experiments involving peptides, 200 μg in 100 μl of sterile water was injected at separate intraperitoneal sites within 10 min of LPS injection. Survival was monitored at 24 hours post injection.

[2] = test system: RAW 264.7; experiment: Suppression of LPS-induced IL-6 production by RAW 264.7 macrophage cell line; assay type: cell-based, murine; conditions: LPS 100 ng/ml, peptide 20 μg/ml, 6 hr, ELISA, FIG. 3
Method: (§1) LPS (endotoxin) binding was examined by the dansyl polymyxin binding assay. All peptides bound to LPS (FIG. 1). The anti-endotoxic activity of the peptides was tested in the murine cell line RAW 264.7 which was obtained from the ATCC (ATCC #TIB-71), (Rockville, Md.). TNF induction experiments with LPS were performed as described by Kelly et al (Infect. Immun., 59:4491-6, 1991). Briefly, Dulbecco's modified Eagle medium was aspirated from RAW 264.7 cells grown overnight in 24-well tissue culture plates after seeding with 10^6 cells per ml per well and replaced with fresh medium. LPS at a final concentration of 100 ng/ml, was incubated with the cells for 6 hr. at 37° C. in 5% CO2 prior to assaying for cytokine production. At the same time as LPS addition, cationic peptides were added at a final concentration of 20 μg/ml. All assays were performed three times with similar results.
(§2) TNF was measured in cell culture supernatants and mouse serum on the basis of cytoxicity for L929 fibroblast cells. […] TNF activity was expressed in units as the reciprocal of the dilution of TNF that caused 50% cytotoxicity of L929 cells, as computed using the ELISA+program (Meddata Inc, New York, N.Y.). For the current study, one unit of TNF corresponded to 62.5 pg/ml of recombinant murine TNF (Genzyme Corp.) IL-6 production was measured by ELISA with specific antibody.

[3] = test system: S. epidermis; experiment: MIC, broth microdilution assay in polypropylene microtiter trays; assay type: cell-based; conditions: average of three separate experiments
Method in brief: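 Each peptide's inhibitory endpoint is based on optical density: absence of any OD change for the chosen duration defines the minimal inhibitory concentration.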

[4] = test system: RAW 264.7; experiment: Inhibition of LPS-induced TNF production by RAW 264.7 macrophage cell line; assay type: cell-based, murine; conditions: E. coli LPS 100 ng/ml, peptide 20 μg/ml, 6 hr; FIG. 2
Method: as §1, §2

[5] = test system: Pseudomonas aeruginosa PAO; experiment: Chronic Pseudomonas aeruginosa lung infection in rats, aerosol treatment; assay type: in vivo; conditions: lungs, quantitative culture; aerosol 10 ml of 5 mg/ml once daily for three days; untreated control 1.2 × 10^6
Method: Fifteen animals were utilized in these experiments (5 animals in each of three groups). All animals were inoculated intratracheal with 10^4 Pseudomonas aeruginosa PAO in agar beads. Three days following inoculation, rats were exposed to aerosol preparations from and Aero-Tech II nebulizer (CIS-US, Bedford, Mass.). The nebulizer was operated at 45 psi, with a flow rate of 10 L/min and contained 10 ml of the preparation to be aerosolized. The 10 ml volume was dispensed in 25-30 minutes. Animals were treated once daily for three days; control animals received daily exposure to 10 mls of 10 mM sodium citrate (pH 7.0); one treatment group received daily exposure to 10 mls of 10 mM sodium citrate (pH 7.0) containing 5 mg/ml of CM3; one treatment group received daily exposure to 10 mls of 10 mM sodium citrate (pH 7.0) containing 5 mg/ml of Cpα2. Animals were sacrificed on day 3, at one hour following the last exposure. The lungs of the treatment and control animals were removed for quantitative culture.

[6] = test system: P. aeruginosa efflux mutant (Nal B, H744); experiment: microbe, parasite or virus in culture; assay type: cell-based
[7] = test system: P. aeruginosa gyrase mutant (Nal A, H374); assay type: cell-based
Method: The biological activity of the peptides can be determined by standard methods known to those of skill in the art, such as Aminimal inhibitory concentration (MIC)≅ assay described in the present examples, whereby the lowest concentration at which no change in OD is observed for a given period of time is recorded as MIC. Alternatively, Afractional inhibitory concentration (FIC)≅ is also useful for determination of synergy between the peptides of the invention, or the peptides in combination with known antibiotics. FICs are performed by checkerboard titrations of peptides in one dimension of a microtiter plate, and of antibiotics in the other dimension, for example. The FIC is calculated by looking at the impact of one antibiotic on the MIC of the other and vice versa. […] Preferably, an FIC of less than 0.5 is obtained for synergism. As used herein, FIC can be determined as follows: [formula]
To test whether the peptides of the invention synergize with various antibiotics, the following method was employed. Fractional Inhibitory Concentration (FIC) was used to determine synergy of peptides combined with antibiotics (e.g., carbenicillin/ciprofloxacin) against Pseudomonas aeruginosa. The following methodology was followed:
(1) Determination of MIC of cationic peptides (MIC A):
100 μl Mueller Hinton broth (MHB) was added per well
12.5 μl of 10× test concentration peptide was added per well to get final peptide concentration of e.g., 128, 64, 32, . . . 0.025 μg/ml from row 1 to 11;
10 μl of 10^−4 dilution of overnight bacterial culture was added per well.
(2) Determination of MIC of Carbenicillin/Ciprofloxacin (MIC B):
100 μl MHB was added per well;
100 μl of 2× test concentration of antibiotic was added in the first well of the row, and doubling dilutions performed across the plate from column 1 to 11;
(3) Determination of MIC of antibiotics (B) when combined with peptides at concentration A:
100 μl Carbenicillin (512 μg/ml) or Ciprofloxacin (8 μg/ml) was added in each well of column 1; doubling dilutions were performed across the plate;
100 μl of the peptide was added in all wells of row 1, mixed, and 100 μl withdrawn and added to row 2, etc., creating a checkerboard titration.
10 μl of 10^−4 dilution of overnight culture was added per well;
plates were incubated at 37EC for 18-24 hours. Combination MIC values A and B were taken as the lowest concentration of drug that reduced bacterial growth by more than 50% in any given column.
(4) FIC index=FICA+FICB=(A)/MIC A+(B)/MIC B. An FIC index of approximately 0.5 or less indicates synergy; 1.0 reflects additivity; and >1.0 indicates antagonism.

Row | SMILES | Mortality (%) [1] | Suppression of IL-6 production [2] | MIC S. epidermis [3] | Inhibition of TNF production (neutralization of endotoxin) [4] | Mean Colony Forming Units +/− S.D. [5] | (B) MIC of Nal when combined with peptide ([6]; nalidixic acid with peptide at concentration (A), efflux mutant Nal B, H744, unit from method) | FIC index ([6]; peptide + nalidixic acid, efflux mutant Nal B, H744) | MIC A MIC of Peptides ([6]; peptide alone, P. aeruginosa efflux mutant Nal B, H744 (Table 6)) | (A) Peptide doses together with Nal ([6]; peptide concentration in combination with nalidixic acid, efflux mutant Nal B, H744) | (B) MIC of Nal when combined with peptide ([7]; nalidixic acid with peptide at concentration (A), Nal A, unit from method) | FIC index ([7]; peptide + nalidixic acid, Nal A) | MIC A MIC of Peptides ([7]; peptide alone, P. aeruginosa gyrase mutant Nal A) | (A) Peptide doses together with Nal ([7]; peptide concentration in combination with nalidixic acid, Nal A) | Suppression of IL-6 production ([2]; listed as Cpα2)
1 | CC[C@H](C)[C@H](NC(=O)CNC(=O)[C@@H](NC(=O)[C@H](CCCCN)NC(=O)[C@H](CCCCN)NC(=O)[C@H](Cc1ccccc1)NC(=O)[C@H](CC(C)C)NC(=O)[C@H](CCCCN)NC(=O)[C@H](Cc1c[nH]c2ccccc12)NC(=O)[C@H](CC(C)C)NC(=O)[C@@H](N)CCCCN)[C@@H](C)CC)C(=O)NCC(=O)N[C@@H](C)C(=O)N[C@H](C(=O)N[C@@H](CC(C)C)C(=O)N[C@@H](CCCCN)C(=O)N[C@H](C(=O)N[C@@H](CC(C)C)C(=O)N[C@@H](CCCCN)C(=O)N[C@H](C(=O)N[C@@H](CC(C)C)C(=O)N[C@H](C(=O)N[C@H](C(=O)NCC(=O)N[C@@H](CC(C)C)C(=O)N1CCC[C@H]1C(=O)N[C@@H](C)C(=O)N[C@@H](CC(C)C)C(=O)N[C@@H](CCCCN)C(=O)N[C@@H](CC(C)C)C(=O)N[C@H](C(=O)N[C@@H](CC(C)C)C(=O)N[C@@H](CCCCN)C(=O)O)[C@@H](C)O)[C@@H](C)O)[C@@H](C)O)C(C)C)C(C)C)C(C)C [CM7] | 100% | clearly superior in their ability to suppress IL-6 production | 4 µg/mL | – | – | – | – | – | – | – | – | – | – | –
2 | CC[C@H](C)[C@H](NC(=O)CNC(=O)[C@@H](NC(=O)[C@H](CCCCN)NC(=O)[C@H](CCCCN)NC(=O)[C@H](Cc1ccccc1)NC(=O)[C@H](CC(C)C)NC(=O)[C@H](CCCCN)NC(=O)[C@H](Cc1c[nH]c2ccccc12)NC(=O)[C@@H](N)CCCCN)[C@@H](C)CC)C(=O)NCC(=O)N[C@@H](C)C(=O)N[C@H](C(=O)N[C@@H](CC(C)C)C(=O)N[C@@H](CCCCN)C(=O)N[C@H](C(=O)N[C@@H](CC(C)C)C(=O)N[C@@H](CCCCN)C(=O)N[C@H](C(=O)N[C@@H](CC(C)C)C(=O)N[C@H](C(=O)N[C@H](C(=O)NCC(=O)N[C@@H](CC(C)C)C(=O)N1CCC[C@H]1C(=O)N[C@@H](C)C(=O)N[C@@H](CC(C)C)C(=O)N[C@@H](CCCCN)C(=O)N[C@@H](CC(C)C)C(=O)N[C@H](C(=O)N[C@@H](CC(C)C)C(=O)N[C@@H](CCCCN)C(=O)O)[C@@H](C)O)[C@@H](C)O)[C@@H](C)O)C(C)C)C(C)C)C(C)C [CM4] | 80% | – | 4 µg/mL | clearly better than others | – | – | – | – | – | – | – | – | – | –
3 | CC[C@H](C)[C@H](NC(=O)CNC(=O)[C@@H](NC(=O)[C@H](CCCCN)NC(=O)[C@H](CCCCN)NC(=O)[C@@H](NC(=O)[C@H](Cc1ccccc1)NC(=O)[C@H](CCCCN)NC(=O)[C@H](CCCCN)NC(=O)[C@H](Cc1c[nH]c2ccccc12)NC(=O)[C@@H](N)CCCCN)[C@@H](C)CC)[C@@H](C)CC)C(=O)NCC(=O)N[C@@H](C)C(=O)N[C@H](C(=O)N[C@@H](CC(C)C)C(=O)N[C@@H](CCCCN)C(=O)N[C@H](C(=O)N[C@@H](CC(C)C)C(=O)N[C@H](C(=O)N[C@H](C(=O)NCC(=O)N[C@@H](CC(C)C)C(=O)N1CCC[C@H]1C(=O)N[C@@H](C)C(=O)N[C@@H](CC(C)C)C(=O)N[C@@H](CCCCN)C(=O)N[C@@H](CC(C)C)C(=O)N[C@H](C(=O)N[C@@H](CCCCN)C(=O)N[C@@H](CCCCN)C(=O)O)[C@@H](C)O)[C@@H](C)O)[C@@H](C)O)C(C)C)C(C)C [CPα2] | – | clearly superior in their ability to suppress IL-6 production | – | clearly better than others | 6.8 × 10^4 +/− 3.6 × 10^4* CFU | 800 µg/mL | 0.63 | 4 µg/mL | 0.5 µg/mL | 800 µg/mL | 0.50 | 4 µg/mL | 1 µg/mL | superior in their ability to suppress IL-6 production
